Measured values reported in US20040010001A1, “Methods and compositions for modulating cell proliferation and cell death” (priority 1999, published 2004).
Like-named read-outs stand apart in the source and are kept apart here.

Columns and labels:
[1] = test system: subcutaneous PC3 tumors; conditions: suramin 10 mg/kg, doxorubicin 5 mg/kg, twice weekly for 3 weeks
Description: Briefly, PC3 cells (5×10^6 cells) were injected subcutaneously.

[2] = test system: rat MAT-LyLu tumor cells, human prostate PC3 tumor cells, PC3-LN cells; assay: Reversal of CM/FGF-induced resistance by suramin; type: cell-based
Description: The study was performed using rat MAT-LyLu tumor cells (shown here) and human prostate PC3 and PC3-LN tumor cells. The cytotoxic effect was detected by measuring the changes in BrdU incorporation in treated samples relative to control samples.

[3] = test system: rat MAT-LyLu tumor cells; assay: Cytotoxicity of suramin alone, reduction of BrdU incorporation; type: cell-based; conditions: read-out: IC50, suramin concentration required to result in 50% reduction in BrdU incorporation
[4] = test system: human prostate PC3-LN tumor cells; assay: cells; type: cell-based; conditions: read-out: IC50, suramin concentration required to result in 50% reduction in BrdU incorporation
[5] = Jodrell et al (1994); cited from earlier work
[6] = in vivo; conditions: mouse, iv, 10 mg/kg
Description: (§1) Animal care was in accordance with the guidelines at the Ohio State University. Several human tumor models were used, including (a) lung metastases derived from intravenous injection of human PC3-LN tumor cells, (b) lung tumors derived from direct injection of human PC3 cells in lungs, and (c) subcutaneously implanted PC3 tumors. Four studies were performed. In all studies, drug treatment was administered intravenously via a tail vein, after the tumor was established. The first and second studies used the intravenous PC3-LN lung metastasis model. Briefly, human PC3-LN cells ([…] in 0.1 ml physiologic saline) were injected intravenously, via a tail vein, into immunodeficient mice. […] Treatment was given twice weekly for three weeks. […] The lung surface area (counted as number of pixel) occupied by the tumor was calculated as a fraction of the total lung area, using Adobe PhotoShop. The number of tumor cells in residual tumors and the fraction of apoptotic cells in each tumor were also determined microscopically. […] This was determined by counting the number of non-apoptotic tumor cells in randomly selected microscopic fields at 400× magnification. […] In the case of combination therapy where fewer than 5 tumor nodules remained per animal, all residual cells (between 20 to 600 cells per animal) were counted.

[7] = test system: human PC3 lung tumors; assay: Lung tumors established by direct injection of PC3 cells into the lungs of immunodeficient mice; type: in vivo; conditions: suramin alone, three doses of 20 mg/kg (n=3)
Description: as §1

[8] = test system: human PC3-LN lung metastases
Description: Animal care was in accordance with the guidelines at the Ohio State University. Several human tumor models were used, including (a) lung metastases derived from intravenous injection of human PC3-LN tumor cells, (b) lung tumors derived from direct injection of human PC3 cells in lungs, and (c) subcutaneously implanted PC3 tumors. Four studies were performed. In all studies, drug treatment was administered intravenously via a tail vein, after the tumor was established. The first and second studies used the intravenous PC3-LN lung metastasis model. Briefly, human PC3-LN cells ([…] in 0.1 ml physiologic saline) were injected intravenously, via a tail vein, into immunodeficient mice. […] Treatment was given twice weekly for three weeks. […] Three days after completion of drug treatments, animals were euthanized and their lungs removed, fixed in Bouin's solution to visualize tumor nodules, and then processed for histologic evaluation. […] The lung surface area (counted as number of pixel) occupied by the tumor was calculated as a fraction of the total lung area, using Adobe PhotoShop. The number of tumor cells in residual tumors and the fraction of apoptotic cells in each tumor were also determined microscopically. Because apoptotic cells disappear over time, a second measure of the extent of apoptosis was the density of non-apoptotic cells in the residual tumors. This was determined by counting the number of non-apoptotic tumor cells in randomly selected microscopic fields at 400× magnification. […] In the case of combination therapy where fewer than 5 tumor nodules remained per animal, all residual cells (between 20 to 600 cells per animal) were counted.

[9] = test system: rat MAT-LyLu tumor cells; assay: Reversal of CM-induced resistance by FGF antibodies and suramin, BrdU incorporation; type: cell-based; conditions: CM of histocultures of lung metastases
Description: The source of CM was lung histocultures for the aFGF experiment, and early monolayer lung cultures for the bFGF experiment. The study used four controls: no CM (left solid curves, open circles); addition of 5 μg/ml aFGF or bFGF antibody but no CM (inverted filled triangle, overlaps with the left control curve); addition of CM but no antibody (right solid curves, open square); addition of CM plus a nonspecific antibody, IgG (5 μg/ml, filled diamond, overlaps with the right CM-control curve). Dotted curves, from right to left, addition of aFGF or bFGF antibody concentrations of 0.05 μg/ml (filled circle); 0.1 μg/ml (filled square); 1 or 0.5 μg/ml (filled triangle); and 5 μg/ml (open inverted triangle). […] Similar results were also found for human PC3 prostate tumor cells.
The first study used specific inhibitors of extracellular aFGF and bFGF, i.e., monoclonal antibodies (FIG. 2A). […] In the presence of the active CM, the bFGF antibody produced a concentration-dependent reversal of the CM-induced chemoresistance, with complete reversal by 5 microgram/ml antibody, whereas a nonspecific antibody (i.e., non-immune rabbit IgG) had no effect. For aFGF, the antibody treatment partially reversed the CM-induced resistance; the maximum reversal was about 60% that was obtained with 1 microgram/ml antibody with no significant additional reversal at a 5-fold higher concentration. The second study evaluated the effect of removing aFGF and/or bFGF from the active CM by immunoprecipitation. Removal of bFGF abolished the resistance, whereas removal of aFGF only partially reversed the CM effect. These two studies indicate that both aFGF and bFGF were involved in the resistance, but had different roles.
This study was performed using the rat MAT-LyLu tumor cells as the model tumor cells and using doxorubicin and paclitaxel as the model anticancer agents. The CM used to induce resistance was collected from histocultures of lung metastases (see Table 1). Five microgram/ml anti-bFGF antibody was added.

[10] = test system: Human prostate PC3 tumor cells; assay: cells; type: cell-based; conditions: read-out: IC50, suramin concentration required to result in 50% reduction in BrdU incorporation
Description: PC3 and PC3-LN tumor cells. […] […].
Cells are harvested from subconfluent cultures using trypsin and resuspended in fresh medium before plating. […] Cells are plated in 96 well microtiter plates at a density such that confluence would not be achieved at the end of the drug treatment period. Cells are allowed to attach to the plate surface by growing in drug-free medium for 20 to 24 hr. […] The drug effect should be measured as inhibition of BrdU incorporation, e.g., according to the Cell Proliferation ELISA BrdU (Boehringer Mannheim).

[11] = clinical; conditions: human, plasma, 240 mg/m^2
[12] = doxorubicin study: suramin 10 mg/kg, doxorubicin 5 mg/kg, intravenous twice weekly for three weeks
[13] = paclitaxel study: suramin 10 mg/kg, paclitaxel 15 mg/kg, intravenous twice weekly for three weeks
[14] = suramin 10 mg/kg, doxorubicin 5 mg/kg, intravenous twice weekly for three weeks

## Cc1ccc(C(=O)Nc2ccc(S(=O)(=O)O)c3cc(S(=O)(=O)O)cc(S(=O)(=O)O)c23)cc1NC(=O)c1cccc(NC(=O)Nc2cccc(C(=O)Nc3cc(C(=O)Nc4ccc(S(=O)(=O)O)c5cc(S(=O)(=O)O)cc(S(=O)(=O)O)c45)ccc3C)c2)c1 [Suramin]
[1]
  effect on tumor growth: no antitumor activity
[2]
  concentration needed to fully reverse the FGF-induced resistance: 1 to 15 µM
[3]
  IC50: 235 µM
[4]
  IC50: 98 µM
[5]
  total body clearance: 0.0095 liter/hour/m^2
[6]
  concentration at 72 h: ~10 µM
[7]
  animals free of tumors: No animals
[8]; [12]
  % Apoptotic cells per tumor: 10 ± 7%
  Density of nonapoptotic cells in residual tumors, cells/field: 139 ± 30 cells/field
[8]; [13]
  % Apoptotic cells per tumor: 4 ± 3%
  Density of nonapoptotic cells in residual tumors, cells/field: 185 ± 104 cells/field
[8]; suramin 10 mg/kg alone
  antitumor effect and toxicity of suramin alone: no significant antitumor effect, nor toxicity
[8]; [14]
  % Lung surface area occupied by tumor: 7 ± 3%
  % Tumor-free animals: 0%
[9]
  suramin concentration that completely inhibited the bFGF-induced resistance: 1 to 2 µM
[10]
  IC50: 93 µM
[11]
  concentration at 0 h: ~90 µg/mL
  concentration at 96 h: ~18 µg/mL
